ChEMBL document CHEMBL4419163, “Assays for identifying compounds that modulate bitter taste” (2014)

Tests used:
Format in all cases: functional, cell-based
[1] = biological target: T1, Taste receptor type 2 member 41 (Homo sapiens) (UniProt P59536); test: Agonist activity at human TAS2R41 expressed in HEK293T cells co-expressing Galpha15 assessed as increase in intracellular calcium level at 20 mM by Calcium-3 dye based fluorescence assay relative to control
T1 sequence (whole entry): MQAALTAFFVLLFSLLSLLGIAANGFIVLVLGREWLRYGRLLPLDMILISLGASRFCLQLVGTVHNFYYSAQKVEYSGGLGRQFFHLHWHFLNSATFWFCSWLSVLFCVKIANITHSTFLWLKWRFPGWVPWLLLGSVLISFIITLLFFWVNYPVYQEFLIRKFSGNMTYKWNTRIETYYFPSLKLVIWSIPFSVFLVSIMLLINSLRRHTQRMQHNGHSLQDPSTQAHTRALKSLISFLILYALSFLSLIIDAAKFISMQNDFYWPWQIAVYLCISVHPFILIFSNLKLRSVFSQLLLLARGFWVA

[2] = biological target: T2, Taste receptor type 2 member 14 (Homo sapiens) (UniProt Q9NYV8); test: Agonist activity at human TAS2R14 expressed in HEK293T cells co-expressing Galpha15 assessed as increase in intracellular calcium level at 20 mM by Calcium-3 dye based fluorescence assay relative to control
T2 sequence (whole entry): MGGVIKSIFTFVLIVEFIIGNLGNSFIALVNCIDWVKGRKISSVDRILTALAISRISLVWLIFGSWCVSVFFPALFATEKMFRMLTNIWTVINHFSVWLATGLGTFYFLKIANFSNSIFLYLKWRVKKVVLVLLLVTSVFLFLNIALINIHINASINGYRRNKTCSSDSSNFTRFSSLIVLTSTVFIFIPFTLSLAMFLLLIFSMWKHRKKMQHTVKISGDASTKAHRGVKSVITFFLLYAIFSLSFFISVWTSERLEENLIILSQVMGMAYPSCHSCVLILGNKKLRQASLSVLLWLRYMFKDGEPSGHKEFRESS

[3] = biological target: T3, Taste receptor type 2 member 43 (Homo sapiens) (UniProt P59537); test: Agonist activity at human TAS2R43 expressed in HEK293T cells co-expressing Galpha15 assessed as increase in intracellular calcium level at 20 mM by Calcium-3 dye based fluorescence assay relative to control
T3 sequence (whole entry): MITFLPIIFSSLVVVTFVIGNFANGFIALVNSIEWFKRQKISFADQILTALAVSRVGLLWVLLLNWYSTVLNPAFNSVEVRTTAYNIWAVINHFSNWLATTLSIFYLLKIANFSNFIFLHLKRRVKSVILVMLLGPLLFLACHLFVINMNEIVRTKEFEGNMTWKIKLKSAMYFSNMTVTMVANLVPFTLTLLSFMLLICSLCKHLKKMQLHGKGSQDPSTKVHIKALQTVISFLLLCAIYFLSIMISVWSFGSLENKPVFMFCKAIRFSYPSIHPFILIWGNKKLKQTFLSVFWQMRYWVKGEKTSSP

[4] = biological target: T4, Taste receptor type 2 member 13 (Homo sapiens) (UniProt Q9NYV9); test: Agonist activity at human TAS2R13 expressed in HEK293T cells co-expressing Galpha15 assessed as increase in intracellular calcium level at 20 mM by Calcium-3 dye based fluorescence assay relative to control
T4 sequence (whole entry): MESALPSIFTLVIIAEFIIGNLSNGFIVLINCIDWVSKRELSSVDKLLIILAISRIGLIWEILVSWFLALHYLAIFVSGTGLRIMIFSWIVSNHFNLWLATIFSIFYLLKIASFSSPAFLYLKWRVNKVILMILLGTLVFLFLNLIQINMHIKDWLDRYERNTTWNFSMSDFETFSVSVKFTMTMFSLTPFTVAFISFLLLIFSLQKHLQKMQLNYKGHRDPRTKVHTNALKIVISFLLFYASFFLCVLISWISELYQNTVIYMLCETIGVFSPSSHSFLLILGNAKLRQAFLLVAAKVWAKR

[5] = biological target: T5, Taste receptor type 2 member 50 (Homo sapiens) (UniProt P59544); test: Agonist activity at human TAS2R50 expressed in HEK293T cells co-expressing Galpha15 assessed as increase in intracellular calcium level at 20 mM by Calcium-3 dye based fluorescence assay relative to control
T5 sequence (whole entry): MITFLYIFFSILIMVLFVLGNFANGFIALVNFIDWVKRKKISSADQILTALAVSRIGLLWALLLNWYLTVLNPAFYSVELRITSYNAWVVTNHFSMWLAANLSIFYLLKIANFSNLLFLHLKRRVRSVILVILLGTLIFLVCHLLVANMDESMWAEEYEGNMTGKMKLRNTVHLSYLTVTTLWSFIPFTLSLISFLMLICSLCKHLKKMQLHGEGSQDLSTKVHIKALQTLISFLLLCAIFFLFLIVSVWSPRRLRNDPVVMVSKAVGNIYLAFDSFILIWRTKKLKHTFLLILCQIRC

[6] = biological target: T6, Taste receptor type 2 member 1 (Homo sapiens) (UniProt Q9NYW7); test: Agonist activity at human TAS2R1 expressed in HEK293T cells co-expressing Galpha15 assessed as increase in intracellular calcium level at 20 mM by Calcium-3 dye based fluorescence assay relative to control
T6 sequence (whole entry): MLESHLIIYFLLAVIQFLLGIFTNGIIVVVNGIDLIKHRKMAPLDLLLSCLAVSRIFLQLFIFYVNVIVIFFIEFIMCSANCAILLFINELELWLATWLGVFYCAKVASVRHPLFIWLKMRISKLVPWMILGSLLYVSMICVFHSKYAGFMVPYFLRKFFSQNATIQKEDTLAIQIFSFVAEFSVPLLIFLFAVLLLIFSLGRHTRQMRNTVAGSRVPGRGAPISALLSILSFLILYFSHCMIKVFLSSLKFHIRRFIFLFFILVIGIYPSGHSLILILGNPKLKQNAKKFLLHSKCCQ

[7] = biological target: T7, Taste receptor type 2 member 30 (Homo sapiens) (UniProt P59541); test: Agonist activity at human TAS2R47 expressed in HEK293T cells co-expressing Galpha15 assessed as increase in intracellular calcium level at 20 mM by Calcium-3 dye based fluorescence assay relative to control
T7 sequence (whole entry): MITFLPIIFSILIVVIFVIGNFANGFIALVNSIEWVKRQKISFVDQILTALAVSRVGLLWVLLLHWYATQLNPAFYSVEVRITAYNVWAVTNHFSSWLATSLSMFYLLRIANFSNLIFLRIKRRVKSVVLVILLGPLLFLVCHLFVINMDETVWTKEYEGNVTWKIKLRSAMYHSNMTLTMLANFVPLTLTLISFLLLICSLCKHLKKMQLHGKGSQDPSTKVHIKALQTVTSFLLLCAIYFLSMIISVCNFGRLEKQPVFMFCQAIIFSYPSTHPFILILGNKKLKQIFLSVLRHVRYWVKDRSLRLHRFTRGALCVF

| Activity [1] | Activity [2] | Activity [3] | Activity [4] | Activity [5] | Activity [6] | Activity [7] | Structure (SMILES) |
| --- | --- | --- | --- | --- | --- | --- | --- |
| < 40% | > 40% | < 40% | > 40% | < 40% | > 40% | < 40% | CC1=CC(=O)NS(=O)(=O)O1 |
| < 40% | > 40% | < 40% | > 40% | < 40% | < 40% | < 40% | CC(O)C(=O)[O-].[K+] (stereo unspecified) |
| < 40% | > 40% | < 40% | > 40% | < 40% | < 40% | < 40% | [Cl-].[K+] [POTASSIUM CHLORIDE] |
